In one series the test system is skin. The note with it: similar to the effect seen with dihydroxyacetone; cited from earlier work.
The next series has as its system UVA-induced ROS. Nature of the series: Reduction of UVA-induced ROS in organ culture of human skin (DCFH-DA). The class given is cell-based. How it is done: Organ culture of human skin was performed starting from a skin sample, exciding pieces of approximately 8×3 mm (ø×thickness). Skin samples (6 per treatment) were cultured in an air-liquid interface in a perforated ring of stainless steel in contact with culture medium (modified Williams' E medium).
At start of the skin culture, in parallel to untreated, the formulations 14.1 to 14.3 and 100% tocopherol acetate were applied topically on the skin samples and afterwards they were cultivated overnight. On the next day, the topical treatments were renewed for 1 hour. In parallel, culture medium with 100 μM of 2′,7′-dichlorofluorescin diacetate (DCFH-DA, Sigma #D6883) was prepared. After 1 hour of incubation of the skin samples, the culture medium was replaced by the medium containing DCFH-DA and the skin samples were incubated for 30 minutes. Then, the skin samples were washed in PBS buffer and UVA irradiation (lamp: Bio Sun by Vilber Lourmat, 60 J/cm2) was performed. Afterwards, the skin samples were harvested, cryo-fixed and cut at the cryostat for image acquisition and analysis. The image acquisition was performed using Olympus BX51 microscope and Olympus DP70 camera. Two skin sections for each skin sample were cut and the related images were acquired and analysed. Doing so, 12 images were obtained for each formulation for analysis. Image analysis was performed within the dermis area selected from the upper part by following the perimeter of the basal lamina to the deep dermis. The obtained values from were normalized upon the dimension of the selected area.

The structures appear in SMILES notation.

As for `O=C(CO)[C@H](O)CO` [Erythrulose, D-Erythrulose], the “production of free radicals” value with skin is given as “increase production of free radicals”.
As to `CC(=O)Oc1c(C)c(C)c2c(c1C)CCC(C)(CCC[C@H](C)CCC[C@H](C)CCCC(C)C)O2` (stereo partly shown) [Tocopherol acetate], the “reduction of UVA-induced ROS vs untreated UVA-irradiated” value in the series with UVA-induced ROS (100% tocopherol acetate, topical) stood at 73%. The “Modulation vs untreated + UVA” value in the series on UVA-induced ROS (UVA 60 J/cm2) was −73%. For the same compound, the “Mean ROS score” value in the series on UVA-induced ROS (UVA 60 J/cm2, topical overnight and renewed 1 hour, untreated no UVA 0.015, untreated + UVA 0.573) amounted to 0.157.
